# Like-named read-outs stand apart in the source and are kept apart here.
# Legend:
# [1] = test system: Yeast Edema of the Rat Paw; assay: Yeast edema and determination of pain threshold in the rat paw; format: in vivo; conditions: 3 h
# Description: test animals are male rats (SIV 50) weighing 100 to 180 g. […] 10 animals belonged to each dosage group.
# The volume of the paw is determined according to the method described by Enders and Heidbrink, the pain threshold according to that described by Randall and Selitto (Arch. Int. Pharmacodyn CXI: 409, 1957).
# Following initial measurements, […] of a 5% suspension of dried yeast is injected subplantarly into the right paw and the test substances are administered immediately. The blank control group is given Tragacanth mucilage only. After 3 hours the pain threshold and the volume of the paw are determined again.
# The mean value of the increase in paw volume of the animals of the blank control after 3 hours is rated 100%, and the mean value of the increase in paw volume of the animals of the substance groups expressed as a percentage thereof. Pain threshold after 3 hours reflects the increase or decrease in percent, compared to the initial value.
# In order to be able to calculate the ED50 according to the method by Lichtfield and Wilcoxon (J.P.E.T. 96:99, 1949), those animals in a dose group are considered protected when the paw swelling was at least 40% less than that of the blank control.
# [2] = test system: Granulation Tissue; assay: Cotton-pellet test (granulation tissue); format: in vivo; conditions: rat
# Description: test animals are male rats (SIV 50) weighing 110 to 200 g. All test animals are kept fasting for 16 to 18 hours prior to the implantation of the pellets; after that food and water were available ad libitum. Each dose level of the chemical tested was administered to 12 animals. The substances were suspended in 1% Tragacanth mucilage and administered intragastrically by means of a stomach tube. The substances to be investigated and the control suspensions are administered once on the operating day following operation, and twice a day on the following 6 days (at intervals of 6 to 8 hours). The type of application and volume of liquid corresponded to that under B.
# Under light ether anesthesia 4 sterile cotton pellets were implanted under the skin on the back of the animal. The weight of one pellet was 50 mg ± 0.5 mg. After 7 days treatment, the animals were sacrificed, the pellets removed with the granulation tissue, weighed and then dried in the incubator at +80°C to constant weight. The average dry weight of the granulation tissue of the control group was rated 100%, and deviations of the mean weights of the group treated with the test substance determined as a percentage thereof.
# The weight of the animals is measured daily throughout the tests, and the percental increase determined. At the end of some tests, moreover, the suprarenal glands are removed and their weight determined.
# [3] = in vivo; conditions: mouse
# [4] = test system: Granuloma Pouch; assay: Granuloma pouch test; format: in vivo; conditions: rat
# Description: Under light ether anesthesia 25 ml of air are injected under the shaved skin of the back. 0.5 ml of croton oil/animal (0.05%) are injected into the pouch formed by the air, and evenly distributed over the back by turning the animal.
# On the third day croton oil (3%, 0.5 ml/animal) is again injected into this pouch.
# The average dry weights of the granuloma pouches and the quantities of secretion of the groups subjected to treatment are then compared with those of the control group and the percental deviations calculated.
# At the end of some tests the suprarenal glands are removed and the weight of these organs is also determined.
# The weight of the animals is measured daily and the changes determined as a percentage.
# [5] = test system: Kaolin Edema of the Rat Paw; assay: Kaolin edema of the rat paw; format: in vivo; conditions: for 60 min. (paw edema) / 120 min. (paw edema) / 180 min. (paw edema): ig., section K
# Description: test animals used are the same as stated under Example B and up to the beginning of the test, the procedure corresponded to that described under this example.
# After an initial measurement, a sterile 25% kaolin suspension was injected (0.05 ml/paw) subplantarly. The test substances are administered immediately, and after 60, 120, and 180 minutes the paw volume is again determined.
# Evaluation of the tests was performed as stated under Example C, and the results so obtained presented below: […]
# [6] = test system: Carrageenin Edema of the Rat Paw; assay: Carrageenin edema of the rat paw; format: in vivo
# Description: test animals used are the same as stated under Example B and up to the initial measurement, the procedure corresponded to that described under this example.
# After an initial measurement, the test substances are administered and after 60 minutes a 1% Carrageenin suspension is injected subplantarly (0.1 ml/paw). After 60 and 180 minutes the paw volume is again determined. Here, too, the blank control group was treated with the carrier alone.
# The increase in the volume of the paw after 60 minutes is considered as the first phase of the biphase edema and that after 180 minutes, as compared to the 60-minute-value, as the second phase. Moreover, the total increase of the paw edema within 180 minutes, as compared to the initial value, is also determined.
# Determination of the influence exerted by the substances upon the development of the paw edema and calculation of the ED50 are done as under Example B.
# [7] = test system: Arthritis Induced by the Freund Adjuvant; assay: Adjuvant arthritis; format: in vivo; conditions: rat, i.g., 2 × 60.0 mg/kg
# Description: test animals used are the same as described under Example E; food and water is given ad libitum.
# On the first day of the test a 0.8% suspension of Mycobacterium butyrium in paraffin (0.05 or 0.1 ml/paw) is injected subplantarly into the left hind paw of the animals. […] From the 19th to the 22nd day the animals showing a reaction are treated intragastrically with the test substances. The right paw having been marked above the ankle-joint, the volume is determined daily from the 19th to the 22nd or 23rd day, according to the process described under Example B.
# The volume of liquid, as well as of the carrier administered, corresponded to that described in the above tests.
# [8] = Summary: calculated ED50 and therapeutic ratio; format: in vivo, rat; conditions: for ED50: Rattus norvegicus
# Description: From the ED50 and LD50 (A) the following therapeutic ratios for this test are calculated: […]
# [9] = test system: male mice (NMRI); assay: Hot-plate test (analgesia); format: in vivo; conditions: mouse, i.g., up to 400 mg/kg
# Description: male mice (NMRI) weighing 18 to 28 g are used as test animals. The animals are placed on a copper plate constantly kept at 55°C, and the time is measured until they lick their forepaws.
# Following 3 initial measurements, the test substances are administered intragastrically. Afterwards the measurements are repeated over a period of 2 hours at intervals of 30 minutes. Each dose is administered to 10 animals selected from groups of 15 animals following the initial measurements.
# The test substances are administered as a suspension in 1% Tragacanth mucilage, the volume of liquid amounting to 2 ml/100 g of body weight.
# For the purpose of statistical evaluation according to Litchfield and Wilcoxon, those animals in which the reaction time has been extended by at least 100% are considered protected.
# [10] = ig., 2×50.0 mg/kg daily, section K
# [11] = po, ig., section K, read-out: volume (paw, control = 100%)
# [12] = ig., 2×90.0 mg/kg daily, section K
structure (smiles),measurement,setting,value
CCOCCCNC(=N)c1sc2ccccc2c1O [Example 41],change in vivo at 125 mg/kg,"[1]; po, ig., 125 mg/kg, section K (control -9)",22%
same,response vs control in vivo at 125 mg/kg,"[1]; po, ig., 125 mg/kg, section K, read-out: volume (paw, control = 100%)",51%
same,granulation tissue % dry weight,"[2]; ig., 2×150 mg/kg daily, section K",90%
same,increase in body weight %,"[2]; ig., 2×150 mg/kg daily, section K, control 36",29%
same,LD50,[3]; po,~1600 mg/kg
N=C(NCCN1CCCC1)c1sc2ccccc2c1O [Example 34],response vs control in vivo at 125 mg/kg,"[1]; sc., 125 mg/kg, section K, read-out: volume (paw, control = 100%)",54%
same,granuloma pouch dry weight %,[4]; [10],79%
same,secretion %,[4]; [10],75%
same,increase in body weight %,"[4]; ig., 2×50.0 mg/kg daily, section K, control 55",51%
same,LD50,[3]; sc,~600 mg/kg
"COC(=N)c1sc2ccccc2c1O [Example 1, Methyl 3-Hydroxy-Benzo[b]Thiopene-2-Carboximidate]",change in vivo at 75 mg/kg,"[1]; po, ig., 75 mg/kg, section K (control -23)",-10%
same,response vs control in vivo at 75 mg/kg,"[1]; po, ig., 75 mg/kg, section K (control pain -23), read-out: volume (paw, control = 100%)",32%
same,LD50,[3]; po,> 1600 mg/kg
CN(C)CCNC(=N)c1sc2ccccc2c1O [Example 31],response vs control in vivo at 200 mg/kg,[1]; [11],75%
same,LD50,[3]; po,> 1600 mg/kg
same,LD50,[3]; sc,> 800 mg/kg
COCCOC(=N)c1sc2ccccc2c1O [Example 10],change in vivo at 200 mg/kg,"[1]; po, ig., section K",-49%
same,response vs control in vivo at 200 mg/kg,[1]; [11],73%
same,change in vivo at 250 mg/kg,"[1]; po, ig., 250 mg/kg, section K (control -35)",-30%
same,response vs control in vivo at 250 mg/kg,"[1]; po, ig., 250 mg/kg, section K, read-out: volume (paw, control = 100%)",33%
same,60 min. (paw edema),[5]; 200 mg/kg,67%
same,120 min. (paw edema),[5]; 200 mg/kg,47%
same,180 min. (paw edema),[5]; 200 mg/kg,46%
same,LD50,[3]; po,~1600 mg/kg
"CCCCC1C(=O)N(c2ccccc2)N(c2ccccc2)C1=O [Phenylbutazone, 4-n-Butyl-1,2-diphenyl-3,5-dioxo-pyrazolidine]","Volume (increase in paw volume, blank control = 100%)","[1]; i.g., 150.0 mg/kg",74%
same,"Volume (increase in paw volume, blank control = 100%)","[1]; i.g., 300.0 mg/kg",67%
same,1st Phase (paw edema),[6]; 60.0 mg/kg,114%
same,2nd Phase (paw edema),[6]; 60.0 mg/kg,52%
same,3 Hrs. (total paw edema),[6]; 60.0 mg/kg,77%
same,1st Phase (paw edema),[6]; 150.0 mg/kg,81%
same,2nd Phase (paw edema),[6]; 150.0 mg/kg,15%
same,3 Hrs. (total paw edema),[6]; 150.0 mg/kg,38%
same,60 Minutes (paw edema),[5]; 90.0 mg/kg,107%
same,120 Minutes (paw edema),[5]; 90.0 mg/kg,100%
same,180 Minutes (paw edema),[5]; 90.0 mg/kg,81%
same,Granulation Tissue % (Dry Weight),"[2]; i.g., 2 × 90 mg/kg daily",78%
same,Increase in Body Weight,"[2]; in vivo, 90 mg/kg",not influenced
same,Granuloma Pouch Dry Weight,"[4]; i.g., 2 × 90 mg/kg daily",84%
same,Secretion,"[4]; i.g., 2 × 90 mg/kg daily",96%
same,granuloma pouch dry weight %,[4]; [12],84%
same,secretion %,[4]; [12],96%
same,Increase in Body Weight,"[4]; in vivo, 90 mg/kg",not influenced
same,increase in body weight %,"[4]; in vivo, 90 mg/kg",57%
same,Swelling,[7],84%
same,ED50,[8],20.1 mg/kg
N=C(NCCN1CCOCC1)c1sc2ccccc2c1O [Example 33],change in vivo at 225 mg/kg,"[1]; sc., 225 mg/kg, section K (control -10)",34%
same,response vs control in vivo at 225 mg/kg,"[1]; sc., 225 mg/kg, section K, read-out: volume (paw, control = 100%)",46%
same,LD50,[3]; sc,~1000 mg/kg
CCOCCOC(=N)c1sc2ccccc2c1O [Example 11],change in vivo at 200 mg/kg,"[1]; po, ig., section K",32%
same,response vs control in vivo at 200 mg/kg,[1]; [11],41%
same,60 min. (paw edema),[5]; 50 mg/kg,40%
same,120 min. (paw edema),[5]; 50 mg/kg,36%
same,180 min. (paw edema),[5]; 50 mg/kg,56%
same,60 min. (paw edema),[5]; 100 mg/kg,22%
same,120 min. (paw edema),[5]; 100 mg/kg,27%
same,180 min. (paw edema),[5]; 100 mg/kg,46%
same,LD50,[3]; po,> 1600 mg/kg
"CC(=O)Oc1ccccc1C(=O)O [Acetylsalicylic Acid, acetylsalicylic acid]","Volume (increase in paw volume, blank control = 100%)","[1]; i.g., 150.0 mg/kg",134%
same,Pain Threshold (change vs initial value),"[1]; i.g., 300.0 mg/kg",-15%
same,"Volume (increase in paw volume, blank control = 100%)","[1]; i.g., 300.0 mg/kg",81%
same,1st Phase (paw edema),[6]; 100.0 mg/kg,83%
same,2nd Phase (paw edema),[6]; 100.0 mg/kg,114%
same,3 Hrs. (total paw edema),[6]; 100.0 mg/kg,96%
same,1st Phase (paw edema),[6]; 200.0 mg/kg,95%
same,2nd Phase (paw edema),[6]; 200.0 mg/kg,60%
same,3 Hrs. (total paw edema),[6]; 200.0 mg/kg,76%
same,60 Minutes (paw edema),[5]; 300.0 mg/kg,156%
same,120 Minutes (paw edema),[5]; 300.0 mg/kg,93%
same,180 Minutes (paw edema),[5]; 300.0 mg/kg,82%
same,60 min. (paw edema),[5]; 300 mg/kg,156%
same,120 min. (paw edema),[5]; 300 mg/kg,93%
same,180 min. (paw edema),[5]; 300 mg/kg,82%
same,Granulation Tissue % (Dry Weight),"[2]; i.g., 2 × 200 mg/kg daily",89%
same,Increase in Body Weight,"[2]; i.g., 2 × 200 mg/kg daily",not influenced
same,Granuloma Pouch Dry Weight,"[4]; i.g., 2 × 150 mg/kg daily",88%
same,Increase in Body Weight,"[4]; i.g., 2 × 150 mg/kg daily",not influenced
same,Secretion,"[4]; i.g., 2 × 150 mg/kg daily",121%
same,Notes (analgesic activity),[9],ineffective
same,ED50,[8],192 mg/kg
same,therapeutic ratio,[8]; from ED50 and LD50 (A),10.7

# From US3971814A, “Benzo(b)thiophene derivatives” (priority 1972, dated 1976)
